Data reported in article PMC7047876, “Potent Chimeric Antimicrobial Derivatives of the Medicago truncatula NCR247 Symbiotic Peptide” (Frontiers in Microbiology, 2020).
Peptide text beside a SMILES is read from it.

How the values were obtained:
Assay type in all cases: cell-based
Escherichia coli = system: Escherichia coli
Description: (§1) The pathogenic bacterial strains obtained from the ATCC (United States) and NCTC (National Collection of Type Cultures – England) were the Gram-positive: Enterococcus faecalis (ATCC 29212), Staphylococcus aureus (HNCMO112011), Listeria monocytogenes (ATCC 19111) and the Gram-negative: Pseudomonas aeruginosa (ATCC 27853), Escherichia coli (ATCC 8739), Salmonella enterica (ATCC 13076), Klebsiella pneumoniae (NCTC 13440), Acinetobacter baumannii (ATCC 17978).
(§2) Ca^2+ and Mg^2+ can inhibit the antimicrobial activity of cationic peptides, therefore the MBC and MIC values were also determined in MHB, which unlike PPB contains divalent cations and allows growth of bacteria. Bacteria were grown and prepared similarly except that bacteria were resuspended in MHB. 10 μl of bacteria OD600 = 0.1, supplemented with 45 μl MHB and 45 μl of 2-fold dilution series of peptides, were cultivated for 3 and 20 h at 37°C with shaking. Optical density of each sample was measured (Hidex Sense Microplate Reader with Plate Reader Software version 5064) and 5 μl was placed on LB agar plates after 3 and 20 h treatment. The minimal inhibitory concentration (MIC) corresponded to the lowest concentration, which inhibited growth.

Staphylococcus aureus = system: Staphylococcus aureus
Description: as §1, §2

Acinetobacter baumannii = system: Acinetobacter baumannii
Description: as §1, §2

[1] = system: human melanoma A375 cells; test: XTT cell proliferation (cytotoxicity) assay; details: 72 h treatment, OD450, three biological repeats
Description: The cytotoxicity of peptides X1-NCR247C and NCR247C-X2 was determined against the human melanoma A375 cells with XTT cell proliferation assay kit (PanReac Applichem) and a benchtop microplate reader (Multiskan RC, Thermo Labsystems) according to the manufacturers’ instructions. A375 human melanoma cell line was obtained from ATCC and maintained in DMEM (Lonza) supplemented by 10% FBS (Euroclone) in a humidified incubator at 37°C and 5% CO2. A375 cells were seeded to 96-well plates (4,000 cells/well) and treated with the peptides for 72 h. Cells without peptides served as negative control and the blank sample was the medium. Reduction of the tetrazolium salt XTT by the viable cells to the orange colored compounds of formazan was measured at OD450. The XTT assay was performed in three biological repeats.

[2] = system: Pseudomonas aeruginosa (ATCC 27853); test: microbe, parasite or virus in culture; details: ATCC 27853, 3 h, pH 7.4; read-out: Minimal bactericidal concentration (MBC) P. a.
Description: as §1
(§3) Overnight bacterial cultures grown in LB were diluted and grown to OD600 = 0.2–0.6 at 37°C with shaking. After harvesting and washing bacteria in PPB, the suspensions were adjusted to OD600 = 0.1 corresponding to ∼10^7 bacteria/mL. Antimicrobial activity of the peptides and the antibiotics was determined in PPB in 96 well microplates using 10 μL bacterial suspension and 90 μL of the 2-fold serial dilutions of peptides or antibiotics. Peptides were tested from 25 μM to 0.125 μM whereas the antibiotics; carbenicillin (Cb) from Duchefa Biochemie (Prod.No. C0109.0025) and levofloxacin (Lvx) from Sigma-Aldrich (Prod.No. 28266-10MG-F) from […] to 0.1 μM. The microplates were incubated for 3 h at 37°C with 250 rpm shaking and then 5 μl from each sample was placed on LB agar and the growth of bacteria was monitored after overnight incubation at 37°C. The lowest concentration of the antimicrobial agents, which completely eliminated viable bacteria was the minimal bactericidal concentration (MBC).

[3] = system: Salmonella enterica (ATCC 13076); test: microbe, parasite or virus in culture; details: ATCC 13076, 3 h, pH 7.4; read-out: Minimal bactericidal concentration (MBC) S. e.
Description: as §1, §3

[4] = system: Acinetobacter baumannii (ATCC 17978); test: microbe, parasite or virus in culture; details: ATCC 17978, 3 h, pH 7.4; read-out: Minimal bactericidal concentration (MBC) A. b.
Description: as §1, §3

[5] = system: Staphylococcus aureus (HNCMO112011); test: microbe, parasite or virus in culture; details: HNCMO112011, 3 h, pH 7.4; read-out: Minimal bactericidal concentration (MBC) S. a.
Description: as §1, §3

[6] = system: Enterococcus faecalis (ATCC 29212); test: microbe, parasite or virus in culture; details: ATCC 29212, 3 h, pH 7.4; read-out: Minimal bactericidal concentration (MBC) E. f.
Description: as §1, §3

[7] = system: Listeria monocytogenes (ATCC 19111); test: microbe, parasite or virus in culture; details: ATCC 19111, 3 h, pH 7.4; read-out: Minimal bactericidal concentration (MBC) L. m.
Description: as §1, §3

[8] = system: Klebsiella pneumoniae (NCTC 13440); test: microbe, parasite or virus in culture; details: NCTC 13440, 3 h, pH 7.4; read-out: Minimal bactericidal concentration (MBC) K. p.
Description: as §1, §3

[9] = system: Escherichia coli (ATCC 8739); test: microbe, parasite or virus in culture; details: ATCC 8739, 3 h, pH 7.4; read-out: Minimal bactericidal concentration (MBC) E. c.
Description: as §1, §3

CSCC[C@H](NC(=O)[C@H](CCCCN)NC(=O)[C@H](Cc1ccccc1)NC(=O)[C@H](CC(N)=O)NC(=O)[C@H](CC(C)C)NC(=O)[C@@H]1CCCN1C(=O)[C@@H](N)CCCNC(=N)N)C(=O)N[C@@H](CC(C)C)C(=O)N[C@@H](CCCNC(=N)N)C(=O)N[C@@H](Cc1ccccc1)C(=O)N[C@@H](Cc1c[nH]c2ccccc12)C(=O)NCC(=O)N[C@@H](CCC(N)=O)C(=O)N[C@@H](CCC(N)=O)C(=O)N[C@@H](CCC(N)=O)C(=O)N[C@@H](CS)C(=O)N[C@@H](CCCNC(=N)N)C(=O)N[C@@H](CCCNC(=N)N)C(=O)N1CCC[C@H]1C(=O)N[C@@H](CC(C)C)C(=O)N[C@@H](Cc1ccc(O)cc1)C(=O)N[C@@H](CS)C(=O)N[C@@H](CCCNC(=N)N)C(=O)N[C@@H](CCCNC(=N)N)C(=O)N[C@@H](CCCNC(=N)N)C(N)=O [D, X1-NCR247C] (H-RPLNFKMLRFWGQQQCRRPLYCRRR-NH2; N-terminus assumed)
3.1 µM: MBC in Mueller Hinton Broth, panel (B), E. c. (Escherichia coli; 20 h) | MIC in Mueller Hinton Broth, panel (C), E. c. (Escherichia coli; 20 h) | MBC in Mueller Hinton Broth, panel (B), S. a. (Staphylococcus aureus; 20 h) | MIC in Mueller Hinton Broth, panel (C), S. a. (Staphylococcus aureus; 20 h) | MBC in Mueller Hinton Broth, panel (B), A. b. (Acinetobacter baumannii; 20 h) | MIC in Mueller Hinton Broth, panel (C), A. b. (Acinetobacter baumannii; 20 h) | MBC [2] | MBC [4] | MBC [5] | MBC [7] | MBC [9]
did not show differences: Cytotoxicity / viability of A375 cells [1]
6.3 µM: MBC in Mueller Hinton Broth, panel (A), A. b. (Acinetobacter baumannii; 3 h) | MBC [6]
1.6 µM: MBC [3]
25 µM: MBC in Mueller Hinton Broth, panel (A), S. a. (Staphylococcus aureus; 3 h)
12.5 µM: MBC in Mueller Hinton Broth, panel (A), E. c. (Escherichia coli; 3 h) | MBC [8]
